Among the data in ChEMBL document CHEMBL1130757, “Synthetic arabinofuranosyl oligosaccharides as mycobacterial arabinosyltransferase substrates” (1998) are Incorporation and Average values, retold here.

Common to all, as to format: functional
For experiment [1], the system named is Mycolicibacterium smegmatis. Kind of experiment: Tested for recognition of mycobacterial arabinosyl transferase incubated with 14C1 labeled decaprenol arabinofuranosyl phosphate in the presence of membrane extracts from Mycobacterium smegmatis in experiment 1 (%incorporation = 12.9).
For experiment [2], the system named is Mycolicibacterium smegmatis. Kind of experiment: Tested for recognition of mycobacterial arabinosyl transferase incubated with 14C1 labeled decaprenol arabinofuranosyl phosphate in the presence of membrane extracts from Mycobacterium smegmatis in experiment 3 (%incorporation = 12.4).
Experiment [3] relates to Mycolicibacterium smegmatis. Kind of experiment: Tested for recognition of mycobacterial arabinosyl transferase incubated with 14C1 labeled decaprenol arabinofuranosyl phosphate in the presence of membrane extracts from Mycobacterium smegmatis in experiment 2 (%incorporation = 12.9).
For experiment [4], the system named is Mycolicibacterium smegmatis. Kind of experiment: Average value of incorporation for recognition of mycobacterial arabinosyl transferase in experiments 1, 2 and 3 (%incorporation = 12.7).
Experiment [5] relates to Mycolicibacterium smegmatis. Kind of experiment: Average value of incorporation for recognition of mycobacterial arabinosyl transferase in experiments 1, 2 and 3 (%incorporation = 14).
Experiment [6] concerns Mycolicibacterium smegmatis. Kind of experiment: Tested for recognition of mycobacterial arabinosyl transferase incubated with 14C1 labeled decaprenol arabinofuranosyl phosphate in the presence of membrane extracts from Mycobacterium smegmatis in experiment 1 (%incorporation = 13.8).
The test system of experiment [7] is Mycolicibacterium smegmatis. Kind of experiment: Tested for recognition of mycobacterial arabinosyl transferase incubated with 14C1 labeled decaprenol arabinofuranosyl phosphate in the presence of membrane extracts from Mycobacterium smegmatis in experiment 2 (%incorporation = 15.8).
Experiment [8] relates to Mycolicibacterium smegmatis. Kind of experiment: Average value of incorporation for recognition of mycobacterial arabinosyl transferase in experiments 1, 2 and 3 (%incorporation = 20.8).
Experiment [9] deals with Mycolicibacterium smegmatis. Kind of experiment: Tested for recognition of mycobacterial arabinosyl transferase incubated with 14C1 labeled decaprenol arabinofuranosyl phosphate in the presence of membrane extracts from Mycobacterium smegmatis in experiment 1 (%incorporation = 21.9).
For experiment [10], the system named is Mycolicibacterium smegmatis. Kind of experiment: Tested for recognition of mycobacterial arabinosyl transferase incubated with 14C1 labeled decaprenol arabinofuranosyl phosphate in the presence of membrane extracts from Mycobacterium smegmatis in experiment 2 (%incorporation = 22.5).
Experiment [11] relates to Mycolicibacterium smegmatis. Kind of experiment: Tested for recognition of mycobacterial arabinosyl transferase incubated with 14C1 labeled decaprenol arabinofuranosyl phosphate in the presence of membrane extracts from Mycobacterium smegmatis in experiment 3 (%incorporation = 18.2).
Experiment [12] relates to Mycolicibacterium smegmatis. Kind of experiment: Tested for recognition of mycobacterial arabinosyl transferase incubated with 14C1 labeled decaprenol arabinofuranosyl phosphate in the presence of membrane extracts from Mycobacterium smegmatis in experiment 2 (%incorporation = 15.2).
Experiment [13] concerns Mycolicibacterium smegmatis. Kind of experiment: Tested for recognition of mycobacterial arabinosyl transferase incubated with 14C1 labeled decaprenol arabinofuranosyl phosphate in the presence of membrane extracts from Mycobacterium smegmatis in experiment 1 (%incorporation = 16.4).
In experiment [14] the test system is Mycolicibacterium smegmatis. Kind of experiment: Average value of incorporation for recognition of mycobacterial arabinosyl transferase in experiments 1 and 2 (%incorporation = 16.1).
In experiment [15] the test system is Mycolicibacterium smegmatis. Kind of experiment: Tested for recognition of mycobacterial arabinosyl transferase incubated with 14C1 labeled decaprenol arabinofuranosyl phosphate in the presence of membrane extracts from Mycobacterium smegmatis in experiment 3 (%incorporation = 16.4).
Experiment [16] relates to Mycolicibacterium smegmatis. Kind of experiment: Tested for recognition of mycobacterial arabinosyl transferase incubated with 14C1 labeled decaprenol arabinofuranosyl phosphate in the presence of membrane extracts from Mycobacterium smegmatis in experiment 1 (%incorporation = 19.1).
The test system of experiment [17] is Mycolicibacterium smegmatis. Kind of experiment: Tested for recognition of mycobacterial arabinosyl transferase incubated with 14C1 labeled decaprenol arabinofuranosyl phosphate in the presence of membrane extracts from Mycobacterium smegmatis in experiment 2 (%incorporation = 16.1).
Experiment [18] deals with Mycolicibacterium smegmatis. Kind of experiment: Average value of incorporation for recognition of mycobacterial arabinosyl transferase in experiments 1, 2 and 3 (%incorporation = 17.2).

With `CO[C@H]1O[C@H](CO[C@H]2O[C@H](CO)[C@@H](O)[C@@H]2O)[C@@H](O)[C@@H]1O`, the figures for the Incorporation in experiment [1], in [2] and in experiment [3] were 5148 c.p.m, 4990 c.p.m and 5148 c.p.m, respectively. The compound further came in with an Average in experiment [4] of 5095 c.p.m.

The compound `CO[C@H]1O[C@H](CO[C@H]2O[C@H](CO)[C@@H](O[C@H]3O[C@H](CO)[C@@H](O)[C@@H]3O)[C@@H]2O)[C@@H](O)[C@@H]1O` showed an Average in experiment [5] of 5600 c.p.m. For the same compound, the Incorporation was 5513 c.p.m in experiment [6], 6326 c.p.m in [7] and 4960 c.p.m in experiment [2].

`CO[C@H]1O[C@H](CO[C@H]2O[C@H](CO[C@H]3O[C@H](CO)[C@@H](O)[C@@H]3O)[C@@H](O)[C@@H]2O)[C@@H](O)[C@@H]1O`: the Average in [8] is 8338 c.p.m. The Incorporation in experiment [9] is recorded as 8732 c.p.m; in [10], 9011 c.p.m; in [11], 7271 c.p.m.

Regarding `CO[C@H]1O[C@H](CO[C@H]2O[C@H](CO[C@H]3O[C@H](CO)[C@@H](O)[C@@H]3O)[C@@H](O[C@H]3O[C@H](CO)[C@@H](O)[C@@H]3O)[C@@H]2O)[C@@H](O)[C@@H]1O`, the Incorporation amounted to 6092 c.p.m in experiment [12] and 6540 c.p.m in experiment [13]. In experiment [14], the Average is listed as 6433 c.p.m.

Consider `CO[C@H]1O[C@H](CO)[C@@H](O[C@H]2O[C@H](CO)[C@@H](O)[C@@H]2O)[C@@H]1O`, for which the Incorporation came out at 6563 c.p.m in experiment [15], 7632 c.p.m in experiment [16] and 6432 c.p.m in experiment [17]. The same compound came in with an Average in [18] of 6876 c.p.m.
